Key:
Acetyl-CoA carboxylase 1 = Acetyl-CoA carboxylase 1 (Homo sapiens, UniProt Q13085); assay: Inhibition of human recombinant ACC1
Acetyl-CoA carboxylase 2 = Acetyl-CoA carboxylase 2 (Homo sapiens, UniProt O00763); assay: Inhibition of human recombinant ACC2
Sequence of Acetyl-CoA carboxylase 2 (O00763 whole entry): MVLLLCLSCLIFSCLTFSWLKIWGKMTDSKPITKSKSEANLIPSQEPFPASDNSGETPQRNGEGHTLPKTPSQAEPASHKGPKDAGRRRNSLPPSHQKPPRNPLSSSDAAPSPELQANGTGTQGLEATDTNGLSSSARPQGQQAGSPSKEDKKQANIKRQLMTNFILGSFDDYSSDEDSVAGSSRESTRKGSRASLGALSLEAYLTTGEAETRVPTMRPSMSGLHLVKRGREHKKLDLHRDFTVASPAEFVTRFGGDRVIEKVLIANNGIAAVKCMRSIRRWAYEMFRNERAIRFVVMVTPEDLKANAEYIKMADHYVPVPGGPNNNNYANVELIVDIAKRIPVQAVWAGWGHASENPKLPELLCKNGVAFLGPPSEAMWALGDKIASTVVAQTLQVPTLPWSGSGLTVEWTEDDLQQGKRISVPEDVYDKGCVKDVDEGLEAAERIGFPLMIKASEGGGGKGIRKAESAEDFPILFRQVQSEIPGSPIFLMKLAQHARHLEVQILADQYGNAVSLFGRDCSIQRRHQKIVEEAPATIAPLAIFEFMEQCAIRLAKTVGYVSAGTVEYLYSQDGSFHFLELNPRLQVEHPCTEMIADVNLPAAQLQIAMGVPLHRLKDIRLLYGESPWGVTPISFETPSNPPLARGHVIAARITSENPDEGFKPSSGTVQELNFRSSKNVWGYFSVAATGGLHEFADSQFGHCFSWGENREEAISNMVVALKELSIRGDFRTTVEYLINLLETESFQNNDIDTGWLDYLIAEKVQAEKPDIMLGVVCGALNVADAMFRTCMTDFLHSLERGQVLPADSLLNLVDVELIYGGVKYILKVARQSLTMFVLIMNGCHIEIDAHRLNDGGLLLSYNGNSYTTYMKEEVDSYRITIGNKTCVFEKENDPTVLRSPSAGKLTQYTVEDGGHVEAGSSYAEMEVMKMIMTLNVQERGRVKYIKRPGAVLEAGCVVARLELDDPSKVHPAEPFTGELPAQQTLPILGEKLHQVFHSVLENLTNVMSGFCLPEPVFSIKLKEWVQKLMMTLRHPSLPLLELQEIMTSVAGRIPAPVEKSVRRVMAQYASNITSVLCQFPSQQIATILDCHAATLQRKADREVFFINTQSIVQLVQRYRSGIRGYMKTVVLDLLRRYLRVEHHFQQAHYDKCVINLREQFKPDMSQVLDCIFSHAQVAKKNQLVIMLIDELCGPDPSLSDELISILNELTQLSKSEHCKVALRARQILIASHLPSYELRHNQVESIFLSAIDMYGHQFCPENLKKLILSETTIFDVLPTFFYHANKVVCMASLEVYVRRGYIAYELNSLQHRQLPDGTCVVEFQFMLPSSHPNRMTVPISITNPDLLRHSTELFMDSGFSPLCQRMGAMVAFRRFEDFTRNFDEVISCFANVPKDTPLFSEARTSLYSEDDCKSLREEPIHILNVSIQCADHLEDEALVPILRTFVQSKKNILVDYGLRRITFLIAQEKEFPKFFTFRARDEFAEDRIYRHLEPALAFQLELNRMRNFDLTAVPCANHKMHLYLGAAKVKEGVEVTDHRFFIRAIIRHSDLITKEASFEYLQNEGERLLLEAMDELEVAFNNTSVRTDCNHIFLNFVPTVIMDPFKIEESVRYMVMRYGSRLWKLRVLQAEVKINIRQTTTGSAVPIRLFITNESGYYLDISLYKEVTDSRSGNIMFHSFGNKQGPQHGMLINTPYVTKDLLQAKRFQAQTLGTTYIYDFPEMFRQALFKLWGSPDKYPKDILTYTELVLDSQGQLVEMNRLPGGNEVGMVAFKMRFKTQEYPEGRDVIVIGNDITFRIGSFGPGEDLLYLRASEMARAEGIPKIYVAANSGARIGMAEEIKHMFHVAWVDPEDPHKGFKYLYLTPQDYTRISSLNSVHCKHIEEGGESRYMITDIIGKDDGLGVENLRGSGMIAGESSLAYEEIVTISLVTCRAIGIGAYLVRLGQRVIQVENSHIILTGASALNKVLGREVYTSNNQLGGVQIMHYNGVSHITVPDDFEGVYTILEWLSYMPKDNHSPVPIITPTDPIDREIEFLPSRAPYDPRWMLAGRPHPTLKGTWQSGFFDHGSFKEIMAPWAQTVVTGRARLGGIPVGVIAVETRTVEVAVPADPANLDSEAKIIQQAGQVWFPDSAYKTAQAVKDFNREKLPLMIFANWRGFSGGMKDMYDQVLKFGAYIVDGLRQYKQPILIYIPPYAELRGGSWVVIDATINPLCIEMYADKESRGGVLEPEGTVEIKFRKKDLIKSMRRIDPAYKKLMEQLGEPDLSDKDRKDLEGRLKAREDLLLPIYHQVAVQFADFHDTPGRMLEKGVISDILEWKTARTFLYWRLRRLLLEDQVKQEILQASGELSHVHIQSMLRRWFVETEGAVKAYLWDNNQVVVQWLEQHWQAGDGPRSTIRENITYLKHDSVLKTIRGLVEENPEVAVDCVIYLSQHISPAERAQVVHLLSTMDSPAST

IC50 (Acetyl-CoA carboxylase 1) | IC50 (Acetyl-CoA carboxylase 2) | Structure (SMILES)
11 nM | 2.9 nM | CC(C)n1ncc2c1C(=O)CC1(CCN(C(=O)c3ccc4[nH]c(C(N)=O)cc4c3)CC1)C2
12 nM | 10 nM | CC(C)n1ncc2c1C(=O)CC1(CCN(C(=O)c3ccc4ccc(N)nc4c3)CC1)C2
2.2 nM | 1.3 nM | CNc1ccc2ccc(C(=O)N3CCC4(CC3)CC(=O)c3nn(C(C)(C)C)cc3C4)cc2n1
5 nM | 2.1 nM | COc1ccc2ncc(C(=O)N3CCC4(CC3)CC(=O)c3c(cnn3C(C)C)C4)cc2c1

From ChEMBL document CHEMBL2321665, “Treatment of Obesity and Related Disorders with Acetyl-CoA Carboxylase Inhibitors” (ACS Med Chem Lett, 2013)
